The values below come from ChEMBL document CHEMBL1201862, “PubChem BioAssay data set” (2004).

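Grown in 96-well plates, cells were treated for 48 hours with each compound at five concentrations. Insufficient inhibition: endpoint recorded as highest concentration tested. GI50 marks 50% less growth.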 The source made the active and inactive calls. Rule as the data show it: active = GI50 up to about 1.1 µM and inactive = higher. A value given as a limit tells only on which side of the number the result lay.

Holding throughout (assay): DTP human tumour cell line panel, 48 h
Experiment [1] deals with SK-MEL-28.
Experiment [2] deals with U-251.
Experiment [3] concerns A549.
Experiment [4] concerns M19-MEL.
Experiment [5] relates to OVCAR-8.
The test system of experiment [6] is EKVX.
Experiment [7] concerns NCI-H23.
For experiment [8], the system named is SN12C.
Experiment [9] has as its system DLD-1.
In experiment [10] the test system is SF-295.
In experiment [11] the test system is SF-539.
The subject of experiment [12] is OVCAR-5.
The subject of experiment [13] is K562.
Experiment [14] concerns NCI-H226.
The subject of experiment [15] is ACHN.
For experiment [16], the system named is RXF 393.

One may read the GI50 as the concentration at which growth is held to half of that of the control. Consider `O=C(CCCCCCCCC(=O)OCC1OC(n2cnc3c(=O)[nH]cnc32)C(O)C1O)OCC1OC(n2cnc3c(=O)[nH]cnc32)C(O)C1O` (centres undefined), for which the GI50 in [1], in experiment [2], in [3], in experiment [4], in experiment [5] and in experiment [6] was > 100 µM (inactive) each time. Also, the GI50 in experiment [7], in experiment [8], in [9], in [10], in experiment [11] and in [12] was > 100 µM (inactive) throughout. Also, the GI50 in experiment [13], in [14], in experiment [15] and in experiment [16] was > 100 µM (inactive) in each case.

In the case of `C=C[C@]1(C)CCC2=C(CCC3C2(C)CCC[C@]3(C)CO)C1` (some centres undefined), the GI50 in experiment [1] was > 100 µM (inactive); in experiment [2], 26.9 µM (inactive); in experiment [3], 40.6 µM (inactive); in experiment [4] it was 43.5 µM (inactive); in experiment [5], 60.5 µM (inactive); in experiment [6], 51.9 µM (inactive). For the same molecule, the GI50 is 50.4 µM (inactive) in experiment [7]; 20.2 µM (inactive) in experiment [8]; 50 µM (inactive) in experiment [9]; 43.6 µM (inactive) in [10]; > 100 µM (inactive) in [11]; > 100 µM (inactive) in [12]. Besides, the GI50 is 34.8 µM (inactive) in [13], 41.2 µM (inactive) in experiment [14], 69.2 µM (inactive) in experiment [15] and 25.8 µM (inactive) in [16].

For `N#Cc1nc(C2OC(COC(=O)c3ccccc3)C(OC(=O)c3ccccc3)C2OC(=O)c2ccccc2)oc1N` (centres undefined), the GI50 in experiment [1] was 31 µM (inactive); in experiment [2], 32.5 µM (inactive); in [3], 26.4 µM (inactive); in experiment [4] it was 36.7 µM (inactive); in [5], 46.1 µM (inactive); in experiment [6], 39.5 µM (inactive). In addition, the GI50 in [7] was 19.1 µM (inactive); in experiment [8], 48.2 µM (inactive); in experiment [9], 37.2 µM (inactive); in [10] it was 39.2 µM (inactive); in experiment [11] it was 58.6 µM (inactive); in experiment [12], 87.7 µM (inactive). Moreover, the GI50 in experiment [13] is 6.12 µM (inactive); in experiment [14], 14.2 µM (inactive); in experiment [15] it was 33.7 µM (inactive); in experiment [16], 14.7 µM (inactive).

For `COc1cc2cccc(/N=C\c3ccccc3Cl)c2cc1OC`, the GI50 in experiment [1] was > 100 µM (inactive); in experiment [2], 95.9 µM (inactive); in experiment [3] it was > 100 µM (inactive); in experiment [4], > 100 µM (inactive); in experiment [5] it was > 100 µM (inactive); in [6], > 100 µM (inactive). Also, the GI50 is > 100 µM (inactive) in [7]; > 100 µM (inactive) in experiment [8]; > 100 µM (inactive) in experiment [9]; 69 µM (inactive) in experiment [10]; > 100 µM (inactive) in [11]; > 100 µM (inactive) in [12]. The GI50 in experiment [13] was 4.8 µM (inactive); in experiment [14], > 100 µM (inactive); in [15], > 100 µM (inactive); in experiment [16] it was > 100 µM (inactive).

Consider `CC(=O)c1ccc(NC(=O)C(=O)Nn2c(S)nc3ccccc3c2=O)cc1`, for which the GI50 in experiment [1], in experiment [2], in experiment [3], in experiment [4], in experiment [5] and in [6] was > 100 µM (inactive) each time. Also, the GI50 in [7], in experiment [8], in [9], in experiment [10], in experiment [11] and in experiment [12] was > 100 µM (inactive) throughout. Moreover, the GI50 in [13], in experiment [14], in experiment [15] and in experiment [16] was > 100 µM (inactive) each time.

With `CCOC(=O)N1N=NC2C3OC(C[C@@]3(C#N)OC(C)=O)[C@H]21` (some centres undefined), the GI50 in [1], in experiment [2], in [3], in [4], in experiment [5] and in experiment [6] was > 100 µM (inactive) in each case. The GI50 in experiment [7], in experiment [8], in [9], in experiment [10], in experiment [11] and in experiment [12] was > 100 µM (inactive) in each case. Moreover, the GI50 in [13], in [14], in [15] and in experiment [16] was > 100 µM (inactive) each time.

Take `O=C(/C=C\c1ccccc1O)c1ccc(O)cc1O`: the GI50 in [1], in [2], in experiment [3], in [4], in experiment [5] and in [6] was > 100 µM (inactive) each time. Further, the GI50 in [7], in experiment [8], in [9], in experiment [10], in experiment [11] and in experiment [12] was > 100 µM (inactive) in each case. Moreover, the GI50 in [13], in experiment [14], in experiment [15] and in experiment [16] was > 100 µM (inactive) each time.

On to `N#CC1(C2CC(=O)N(c3ccccc3)C2=O)CCCCC1=O` (centres undefined), for which the GI50 in experiment [1], in experiment [2], in [3], in experiment [4], in experiment [5] and in experiment [6] was > 100 µM (inactive) in each case. The GI50 in [7] was > 100 µM (inactive); in [8], 0.791 µM (active); in experiment [9], > 100 µM (inactive); in experiment [10] it was > 100 µM (inactive); in experiment [11] it was > 100 µM (inactive); in [12], > 100 µM (inactive). The GI50 in experiment [13], in [14], in experiment [15] and in [16] was > 100 µM (inactive) in each case.

As for `N#CCc1ccc(C(C#N)/C(CCCC(=O)Nc2cccc([N+](=O)[O-])c2)=N\NC(=O)NN)cc1` (centres undefined), the GI50 in experiment [1], in [2], in experiment [3], in experiment [4], in experiment [5] and in experiment [6] was > 100 µM (inactive) in each case. Moreover, the GI50 in experiment [7], in [8], in [9], in experiment [10], in experiment [11] and in experiment [12] was > 100 µM (inactive) in each case. Moreover, the GI50 in experiment [13], in experiment [14], in experiment [15] and in experiment [16] was > 100 µM (inactive) throughout.
